Key:
[1] = system: Q7 cells (ST HDH Q7/7; immortalized mouse striatal cells); experiment: 384-Well Cell Titer Glo (CTG) Q7 Cystine Deprivation Survival Assay; assay type: cell-based; conditions: read-out: Q7 Cystine Free CTG 384 CSA (EC50)
Description: (§1) In neuronal cells excess extracellular glutamate inhibits the cystine/glutamate antiporter leading to intracellular cysteine depletion, GSH depletion, ROS production and cell death, a phenomenon termed oxidative glutamate toxicity or oxytosis. Q7 cells (ST HDH Q7/7; immortalized mouse striatal cells) challenged with cystine-free media recapitulate this phenotype. An initial screen was performed to identify compounds effective in rescuing Q7 cells from death resulting from cystine deprivation. This method is further described in Yonezawa et al., J. Neurochem 67, 566-573 (1996), and Li et al., J Neurosci., 23, 5816-5826 (2003).
(§2) DMEM (Catalog no. 11995-040), DMEM without Cystine (Catalog no. 21013-024), PBS (Phosphate buffered saline), Penicillin-streptomycin mix, L-Glutamine and Pyruvate were purchased from Gibco. Fetal Bovine Serum was obtained from Mediatech, Inc. Mouse striatum derived ST HDH Q7/7 (Q7) cells were obtained from Dr. M. MacDonald (Massachusetts General Hospital). Methionine and Vitamin K2 were purchased from Sigma Aldrich. Cell Titer Glo 2.0 was purchased from Promega. Geneticin (G418) Sulfate was purchased from Santa Cruz Biotechnology. Cell culture medium (Growth medium) was made by combining 50 mL Fetal Bovine Serum, 100 U/mL penicillin, 100 microgram/mL streptomycin and 400 microgram/mL Geneticin (G418) Sulfate; DMEM was added to make the volume up to 500 mL. Assay medium (without Cystine) was made by combining 50 mL Fetal Bovine Serum, 100 U/mL penicillin, 100 microgram/mL streptomycin, 4 mM L-Glutamine, 1 mM Pyruvate and 30 mg/L Methionine; DMEM without Cystine was added to make the volume up to 500 mL. During the course of the experiments, these solutions were stored at 4° C. The cells were grown in 10-cm diameter tissue culture-treated dishes. Every fourth day, the cells were subcultured by trypsinization and re-seeding at a cell density of 500,000 cells per dish.
(§3) Test samples were supplied in 1.5 mL glass vials. The compounds were diluted with an appropriate volume of DMSO to result in a 1 mM stock solution. Once dissolved, they were stored at −20° C.
Test Samples were Screened According to the Following Protocol:
Q7 cells were cultured routinely as described herein. For 384-well cell survival assays, cells were seeded in clear bottom, black wall 384-well tissue culture-treated polystyrene plates by resuspending a cell suspension at a density of 50,000 cells/mL in growth medium, then dispensing 60 microliters of cell suspension per well using either an electronic multichannel pipette or a Multidrop™ Combi Reagent Dispenser (ThermoFisher Scientific), corresponding to 3,000 cells/well. The cell-containing plates were incubated 5 hours at 33° C. in an atmosphere with 95% humidity and 5% CO2 to allow attachment of the cells to the culture plate.
5 hours after cell seeding into the 384-well assay plate, the cell culture medium was replaced by washing 2 times with 70 microliters/well PBS (without Ca^++ and Mg^++) using a BioTek ELx405 plate washer. After the final aspiration, 60 microliters/well of assay medium (without cystine) was added using the Multidrop Combi Reagent Dispenser. Within 45 minutes, test compounds were then added to varying final concentrations using the Tecan D300e Digital Dispenser, with subsequent back-filling with DMSO diluent to a final concentration of 0.3% (v/v).
After medium change to cystine-free medium and compound addition, cell plates were incubated at 33° C. in an atmosphere of 5% CO2 and 95% humidity. 18 hours later, the plates were equilibrated to room temperature for 15 minutes. Then, 10 microliters/well of room temperature Cell Titer Glo 2.0 reagent was added using the Multidrop Combi Reagent Dispenser. After 15 minutes of incubation at room temperature, the luminescence (100 ms integration time) per well was determined using the BioTek Synergy plate reader. Data was imported into Microsoft Excel. […]

[2] = system: Q7 cells (ST HDH Q7/7; immortalized mouse striatal cells); experiment: Q7 cystine deprivation cell survival assay (96-well, Calcein AM); assay type: cell-based; conditions: for EC50: Mus musculus, rescue of Q7 cells from cystine deprivation, 18 hours, Calcein AM fluorescence, 96-well
Description: as §1
as §2, with “21013-024),” for “21013-024), PBS (Phosphate buffered saline),”, “Calcein AM” for “Cell Titer Glo 2.0”, “Anaspec.” for “Promega.”
as §3
Test samples were screened according to the following protocol:
Q7 cells were cultured routinely as described herein. For cell survival assays, cells were seeded in clear 96-well tissue culture-treated polystyrene plates by resuspending a cell suspension at a density of 100,000 cells/mL in growth medium, then dispensing 100 microliters of cell suspension per well using an electronic multichannel pipette, corresponding to 10,000 cells/well. The cell-containing plates were incubated 5 hours at 33° C. in an atmosphere with 95% humidity and 5% CO2 to allow attachment of the cells to the culture plate.
Test compounds were thawed, and 2 microliters of a 1 mM stock solution was diluted in a microtiter plate well containing 98 microliters of 10% DMSO in H2O, resulting in a 20 micromolar master solution. Serial dilutions from the master solution were made in 10% DMSO. The period between the single dilution steps was kept as short as possible (generally less than 30 seconds). 5 hours after cell seeding into the 96-well assay plate, the cell culture medium was removed by inverting the plates and gently patted onto paper towel. The plates were washed once with 100 microliters of PBS containing Ca^++ and Mg^++. PBS containing Ca^++ and Mg^++ were removed by inverting the plates and gently patted onto a paper towel. After washing the wells, 100 microliters of assay medium without Cystine was dispensed and then treated with 10 microliters of the various compound dilutions in triplicates. Final concentration of DMSO in the well was 1%.
After medium change to cystine-free medium and compound addition, cell plates were incubated at 33° C. in an atmosphere of 5% CO2 and 95% humidity. 18 hours later, the medium from all plates was removed by inverting the plates and gently tapping the plate onto a paper towel. […]

[3] = rescue of Q7 cells from cystine deprivation, 18 hours, Cell Titer Glo luminescence, 384-well

Row | Compound | EC50 [1, 3] [nM] | EC50 ([1]; 18 h) [nM] | EC50 [2] [nM] | also measured
1 | CCOCCCCCCCCCCC1=C(C)C(=O)C(C)=C(C)C1=O [Example 16, 2-(10-ethoxydecyl)-3,5,6-trimethylcyclohexa-2,5-diene-1,4-dione] | < 100 | – | – | –
2 | CCCOCCCCCCCCCCC1=C(C)C(=O)C(C)=C(C)C1=O [Example 12, 2,3,5-trimethyl-6-(10-propoxydecyl)cyclohexa-2,5-diene-1,4-dione] | – | < 100 | – | –
3 | CC1=C(C)C(=O)C(CCCCCCCCCCOCC(F)(F)F)=C(C)C1=O [Example 5, 2,3,5-trimethyl-6-(10-(2,2,2-trifluoroethoxy)decyl)cyclohexa-2,5-diene-1,4-dione] | < 100 | – | < 500 | –
4 | CC1=C(C)C(=O)C(CCCCCCCCCCN2CCCC2)=C(C)C1=O [Example 21, 2,3,5-trimethyl-6-(10-(pyrrolidin-1-yl)decyl)cyclohexa-2,5-diene-1,4-dione] | < 100 | – | – | –
5 | CC1=C(C)C(=O)C(CCCCCCCCCCN(C)CC(C)C)=C(C)C1=O [Example 20, 2-(10-(isobutyl(methyl)amino)decyl)-3,5,6-trimethylcyclohexa-2,5-diene-1,4-dione] | < 100 | – | – | –
6 | CCOCCCCCCCCC1=C(C)C(=O)C(C)=C(C)C1=O [Example 10, 2-(8-ethoxyoctyl)-3,5,6-trimethylcyclohexa-2,5-diene-1,4-dione] | – | < 100 | – | –
7 | CC1=C(C)C(=O)C(C(C)C)=C(CCCCCCCCCCC(F)(F)F)C1=O [Example 7, 2-isopropyl-5,6-dimethyl-3-(11,11,11-trifluoroundecyl)cyclohexa-2,5-diene-1,4-dione] | 100 to 500 | – | < 500 | –
8 | CC1=C(C)C(=O)C(CCCCCCCCCCNCC(C)C)=C(C)C1=O [Example 22, 2-(10-(isobutylamino)decyl)-3,5,6-trimethylcyclohexa-2,5-diene-1,4-dione] | – | < 100 | – | –
9 | CC1=C(C)C(=O)C(CCCCCCCCCCOc2ccccc2)=C(C)C1=O [Example 13, 2,3,5-trimethyl-6-(10-phenoxydecyl)cyclohexa-2,5-diene-1,4-dione] | – | < 100 | – | –
10 | CC1=C(C)C(=O)C(CCCCCCCCOC(C)C)=C(C)C1=O [Example 14, 2-(8-isopropoxyoctyl)-3,5,6-trimethylcyclohexa-2,5-diene-1,4-dione] | – | < 100 | – | –
11 | CC1=C(C)C(=O)C(CCCCCCCCOCC(C)C)=C(C)C1=O [Example 18, 2-(8-isobutoxyoctyl)-3,5,6-trimethylcyclohexa-2,5-diene-1,4-dione] | – | < 100 | – | –
12 | CC1=C(C)C(=O)C(CCCCCCCCCCOCC(C)C)=C(C)C1=O [Example 11, 2-(10-isobutoxydecyl)-3,5,6-trimethylcyclohexa-2,5-diene-1,4-dione] | – | < 100 | – | –
13 | CC1=C(C)C(=O)C(CCCCCCCCC(F)(F)F)=C(C)C1=O [Example 2, 2,3,5-trimethyl-6-(9,9,9-trifluorononyl)cyclohexa-2,5-diene-1,4-dione] | 100 to 500 | – | 500 to 1000 | –
14 | CC1=C(C)C(=O)C(CCCCCCCCOCC(F)(F)F)=C(C)C1=O [Example 1, 2,3,5-trimethyl-6-(8-(2,2,2-trifluoroethoxy)octyl)cyclohexa-2,5-diene-1,4-dione] | 100 to 500 | – | 500 to 1000 | –
15 | CC1=C(C)C(=O)C(CCCCCCCCCCC(F)(F)F)=C(C)C1=O [Example 4, 2,3,5-trimethyl-6-(11,11,11-trifluoroundecyl)cyclohexa-2,5-diene-1,4-dione] | < 100 | – | < 500 | –
16 | CCCOCCCCCCCCC1=C(C)C(=O)C(C)=C(C)C1=O [Example 17, 2,3,5-trimethyl-6-(8-propoxyoctyl)cyclohexa-2,5-diene-1,4-dione] | < 100 | – | – | –
17 | COCCCCCCC1=C(C)C(=O)C(C)=C(C)C1=O [Example 15, 2-(6-methoxyhexyl)-3,5,6-trimethylcyclohexa-2,5-diene-1,4-dione] | – | 100 to 500 | – | –
18 | COCCCCCCCCC1=C(C)C(=O)C(C)=C(C)C1=O [Example 3, 2-(8-methoxyoctyl)-3,5,6-trimethylcyclohexa-2,5-diene-1,4-dione] | 100 to 500 | – | 500 to 1000 | –
19 | CC1=C(C)C(=O)C(CCCCCCCCCCOC(C)C)=C(C)C1=O [Example 9, 2-(10-isopropoxydecyl)-3,5,6-trimethylcyclohexa-2,5-diene-1,4-dione] | – | < 100 | – | –
20 | CC1=C(C)C(=O)C(CCCCCCCCOc2cccnc2C)=C(C)C1=O [Example 19, 2,3,5-trimethyl-6-(8-((2-methylpyridin-3-yl)oxy)octyl)cyclohexa-2,5-diene-1,4-dione] | – | 100 to 500 | – | –
21 | COCCCCCCCCCCC1=C(C)C(=O)C(C)=C(C)C1=O [Example 6, 2-(10-methoxydecyl)-3,5,6-trimethylcyclohexa-2,5-diene-1,4-dione] | < 100 | – | 500 to 1000 | –
22 | CC1=C(C)C(=O)C(NS(C)(=O)=O)=C(CCCCCCCCCCC(F)(F)F)C1=O [Example 8, N-(4,5-dimethyl-3,6-dioxo-2-(11,11,11-trifluoroundecyl)cyclohexa-1,4-dien-1-yl)methanesulfonamide] | < 100 | – | – | –
23 | CC(C)=CCC/C(C)=C/CC/C(C)=C/CC/C(C)=C/CC1=C(C)C(=O)c2ccccc2C1=O [Vitamin K2, reference compound] | – | – | – | rescue of cystine deprivation-induced reduction in cell viability ([2]; 1 micromolar, defined as 100% relative viability): completely rescued
